Patent publication US20260294940A1, “PHOSPHORUS-CONTAINING COMPOUNDS FOR TREATING INFLAMMATORY BOWEL DIESEASE” (VivaVision Biotech, Inc., priority 2022, published 2026)

What was measured:
Format in all cases: in vivo, Balb/c mice
TNF-α = TNF-α level in oxazolone-induced colitis mice (cytometric bead array); details: Day 9, PO BID 5 days, compound A30 1, 5 or 25 mg/kg, tofacitinib 10 mg/kg; for TNF-α level (intestinal mucosa): FIG. 7; for TNF-α level (serum): FIG. 9
Description: (§1) Compound A30 was evaluated in an oxazolone-induced colitis murine model, along with tofacitinib. Boirivant et al., J. Exp. Med. 1998, 188, 1929-39. Balb/c mice were randomly divided into 6 groups according to Table 1:4 treatment groups (Treatment Groups), 1 vehicle group (Vehicle Group), and 1 sham group (Sham Group). The mice in Treatment and Vehicle Groups were sensitized with 200 μL of 2% oxazolone in acetone and olive oil (1:4), followed by injection of 100 μL of 1.5% oxazolone into the rectum of each mouse on Day 5 after sensitization. The mice in Sham Group were sensitized with 200 μL of a mixture of acetone and olive oil (1:4) without oxazolone, followed by injection of 100 μL of 50% ethanol/water into the rectum of each mouse on Day 5 after sensitization. Before the injection into the rectum, each mouse was anesthetized intraperitoneally with tribromoethanol (0.3 mL, 1.25%). From Days 4 to 8 after sensitization, the mice in Sham and Vehicle Groups were each given 0.5% CMC-Na by gavage, and the mice in Treatment Groups were each given by gavage tofacitinib or compound A30 in 0.5% CMC-Na, respectively, according to the dosing schedule shown in Table 1.
(§2) On Day 9 after sensitization, each mouse was euthanized and blood was collected from the heart. A serum was prepared and frozen for the determination of inflammatory factors.
(§3) The colon of each mouse was collected and photographed, and the colon length was measured and weighed after the removal of the content of the colon. A part of each colon collected was fixed using the Swiss roll technique in neutral paraformaldehyde for pathological scoring (Table 3) as described in Bialkowska et al., J. Vis. Exp. 2016, 113, e54161. The rest of the colon mucosa of each mouse was scraped and frozen for the determination of inflammatory factors.
(§4) The IFN-γ and TNFα levels were analyzed using a BD™ cytometric bead array (CBA) kit.

IFN-γ = IFN-γ level in oxazolone-induced colitis mice (cytometric bead array); details: Day 9, PO BID 5 days, compound A30 1, 5 or 25 mg/kg, tofacitinib 10 mg/kg; for IFN-γ level (intestinal mucosa): FIG. 8; for IFN-γ level (serum): FIG. 10
Description: as §1, §2, §3, §4

[1] = system: oxazolone-induced colitis mice; experiment: Oxazolone-induced acute colitis in mice for ulcerative colitis (bodyweight, DAI, colon weight, length and density); details: PO BID 5 days, compound A30 1, 5 or 25 mg/kg, tofacitinib 10 mg/kg; for colon weight / colon length / colon density: Day 9 after sensitization; for colon weight: FIG. 3; for colon length: FIG. 4; for colon density: FIG. 5; for bodyweight change: FIG. 1; for DAI score: FIG. 2
Description: as §1
The bodyweight of each mouse was measured daily. From Day 4 after sensitization, the fecal property and occult blood as determined with a fecal occult blood test (FOBT) of each mouse were measured daily to calculate a disease activity index (DAI) according to Table 2.
as §2, §3
Due to the inflammation, it is expected that the colon of an oxazolone-induced colitis mouse has an […], and increased density.

| Structure (SMILES) | TNF-α level (intestinal mucosa) (TNF-α) | TNF-α level (serum) (TNF-α) | IFN-γ level (intestinal mucosa) (IFN-γ) | IFN-γ level (serum) (IFN-γ) | colon weight [1] | colon length [1] | colon density [1] | bodyweight change [1] | DAI score [1] |
| --- | --- | --- | --- | --- | --- | --- | --- | --- | --- |
| C[C@@H]1CCN(C(=O)CC#N)C[C@@H]1N(C)c1ncnc2[nH]ccc12 [tofacitinib] | lowered | lowered | lowered | lowered | able to reverse the disease effects | able to reverse the disease effects | able to reverse the disease effects | slowed the bodyweight loss | improved the DAI score |
| C[P@](=O)(CCc1cc(Cl)c(C(=O)N[C@@H](Cc2cccc(S(C)(=O)=O)c2)C(=O)O)c(Cl)c1)c1cccc(O)c1 [compound A30, (S)-2-(2,6-dichloro-4-(2-((S)-(3-hydroxyphenyl)(methyl)phosphoryl)ethyl)benz-amido)-3-(3-(methylsulfonyl)phenyl)propanoic acid] | lowered | lowered | lowered | lowered | able to reverse the disease effects | able to reverse the disease effects | able to reverse the disease effects | slowed the bodyweight loss | improved the DAI score |
